Assay results from US10662225B2, “Backbone cyclized inhibitory peptides of myeloid differentiation factor 88 (MyD88)” (Yissum Research Development Company of the Hebrew …, priority 2016, dated 2020).
Numbered stars: 1 amine (or outer) side, 2 acyl side, 3 side chain; on linkers, the order of the positions; unused ones are H or OH. Bridge positions count the residues as written; N and C are the ends. Square brackets hold non-standard residues; d marks the D form. Ends that are not written are not given here. CO = O=C([*:1])[*:2]

Tests used:
[1] = tested on: MyD88-dependent signaling; assay: Library screen: TNFα production by U937 macrophage cells stimulated with PAM3Csk; type: cell-based, human; conditions: PAM3Csk overnight, peptide concentration estimated 2-4 μM
Procedure: FIG. 4. Screening results of the peptide library of 16 compounds. Human macrophage U937 cells were stimulated with PAM3csk overnight in the absence or presence of each of the cyclic peptides. Human TNFα levels in the supernatants were determined by ELISA. […].
The backbone cyclic library of 16 compounds synthesized in Example 3 was screened for inhibition of MyD88-dependent signaling through innate immune receptors employing the human macrophage cell line U937. […] The concentration of the cyclic peptides in the library was estimated to be 2-4 μM.

[2] = tested on: MyD88-dependent signaling; assay: TNFα production by THP-1 derived macrophages stimulated with PAM3csk; type: cell-based, human; conditions: THP-1 macrophages, PAM3csk overnight
Procedure: FIG. 5. Human monocytic THP-1 cells were differentiated to macrophages and were stimulated with PAM3csk overnight in the absence or presence of the cyclic 4-carbon bridge peptide or 6-carbon bridge peptide. TNFα levels in the supernatants were determined by ELISA.
Both cyclic peptides were synthesized with the addition of a tryptophan group to the N-terminus to enable accurate quantification of the molecules.

[3] = biological target: T1, MyD88 (Mus musculus, UniProt P22366); assay: IL-18-induced IFN-γ secretion by MOG35-55 specific T cells (ELISA); type: cell-based
T1 construct: endogenous in cells; host or cells: MOG35-55 specific T cells
Procedure: FIG. 1. MyD88 inhibitor linear peptide down-regulates IL-18-induced T-cell interferon gamma (IFN-γ) production in vitro. A: MOG35-55 specific T cells were incubated with MIP (SEQ ID NO: 1), or the scrambled version of MIP (MIPscr, PTDLVRG, SEQ ID NO: 5), or without peptide (control) for 2 h. T-cells were then plated with (right side of graph) or without (left side of graph) 30 ng/ml IL-18 for 22 h and IFN-γ production was measured by ELISA. Asterisks denote P<0.0001 compared to no inhibitor peptide or MIPscr. B: MOG35-55 specific T cells were incubated with MIP (SEQ ID NO: 1), or the scrambled version of MIP (MIPscr, SEQ ID NO: 5), or without peptide (control) for 2 h. T-cells were then plated with (right side of graph) or without (left side of graph) 30 ng/ml IL-18 for 22 h in the presence of irradiated splenocytes and MOG35-55 peptide ([…], SEQ ID NO: 4) (5 μg/ml). IFN-γ production was measured by ELISA. Asterisks denote P<0.0001 compared to no inhibitor peptide.
To investigate the ability of the MyD88 inhibitor linear peptide (termed either MIP or MyDI) to inhibit MyD88 activity in T-cells in vitro, the secretion of IFN-γ by MOG-specific T cells in response to IL-18 stimulation was tested. The signaling of IL-18 trough the IL-18 receptor is MyD88 dependent. […] Cells were then stimulated with IL-18, and IFN-γ levels in the supernatants were analyzed after 24 h. […]

[4] = tested on: NFκB p65 nuclear translocation; assay: NFκB p65 nuclear translocation in HeLa cells stimulated with TNFα or IL-1β; type: cell-based; conditions: HeLa cells
Procedure: FIG. 6. HeLa assay showing specificity of MyD88 inhibition. HeLa cells were stimulated with recombinant TNFα or IL-1β and NFkB localization was determined with anti-p65 conjugated to rhodamine. The percent of cells with nuclear localization was determined and is shown in the bar graphs on the right. 6A: Top row, HeLa cells transduced with control shRNA. Second row, shRNA knock-down of MyD88. 6B: Top row, HeLa cells treated with MyD88 inhibitor linear peptide. Bottom row, HeLa cells treated with scrambled control version of the MyD88 inhibitor linear peptide (SEQ ID NO: 5).
FIG. 7. HeLa assay showing specificity of MyD88 inhibition by 4×4MyDI. HeLa cells were stimulated with recombinant TNFα or IL-1b and NFkB localization was determined with anti-p65 conjugated to rhodamine. The percent of cells with nuclear localization was determined, and is shown in the bar graphs on the right. Top row, HeLa cells with no pre-treatment. Second row, HeLa cells pre-treated for 30 min with the backbone cyclic 4×4MyDI compound.
Lead compounds were further tested in vitro to confirm the specificity of the inhibition. A fluorescence-based in vitro activity assay that determines the degree of activation of the transcription factor NFκB was established. In this assay, cells are treated with either TNFα or IL-1b, both inflammatory cytokines that activate NFκB. Upon activation, the p65 unit of the NFκB transcription factor re-locates from the cytoplasm to the nucleus. Using fluorescently-tagged antibodies to p65, the cytoplasmic vs. nuclear localization of the factor is determined. Importantly, since the signaling of IL-1b, but not TNFα, is dependent on MyD88, this assay can establish the specificity of the inhibition achieved using the lead compounds.
Cells were activated with either IL-1β (the signaling of the IL-1 receptor is dependent on MyD88), or with TNFα (signaling of its receptor is independent of MyD88). The activation was measured by the translocation of NFκB from the cytoplasm to the nucleus. As a positive control, a stable MyD88 knock-down cell line was established using lentiviral encoded shRNA.
Using the same system, when cells were treated with the backbone cyclic peptide 4×4MyDI, activation by IL-1β was blocked, however when treated with TNFα the activation was not inhibited.

[5] = biological target: T2, MyD88 TIR domain (Homo sapiens, UniProt Q99836); assay: Competition assay: binding of biotinylated linear BB loop peptide to MyD88 TIR domain; conditions: different concentrations
T2 construct: made in house
Procedure: FIG. 9. 4×4MyDI binds to the BB loop region of the MyD88 TIR domain. A 96 well plate was coated with recombinant MyD88 (8 μg/ml) in coating buffer vs. buffer alone, and wells were blocked with 1% BSA. Biotinylated linear peptide was added to all wells (125 μg/ml) followed by streptavidin-HRP and substrate. The signal of linear peptide bound to its target was inhibited by incubation with the 4×4MyDI (*P<0.05) but not by incubation with the scrambled version of the linear peptide (SEQ ID NO: 5).
The ability of the 4×4MyDI compound to bind to the target region (the BB loop) of the MyD88 TIR domain, was evaluated using a newly-designed assay. For this goal a competition assay was established that tests the ability of the 4×4MyDI compound to prevent the binding of the biotinylated linear BB loop peptide to the MyD88 TIR domain. The MyD88 TIR domain was produced as a recombinant protein fused to the SUMO3 protein (Accession # NP_008867), purified, and attached to a 96 well plate. Binding of biotinylated RDVLPGT (SEQ. ID NO: 1) peptide was detected using streptavidin conjugated to horse radish peroxidase (HRP) followed by the addition of HRP substrate.

[6] = Metabolic stability in plasma (quantitative HPLC); type: in vitro ADME, human; conditions: plasma; 4×4MyDI: first two hours
Procedure: FIGS. 17A and 17B. 4×4MyDI is metabolically stable in comparison to the linear MyDI peptide. 4×4MyDI vs. linear MyDI heptapeptide were incubated independently in either human plasma […] or human plasma supplemented with Brush Border Membrane Vesicles (BBMV, 18B). At various time points the solution was sampled and the amount of remaining compound was determined by quantitative HPLC.
Peptide backbone cyclization confers metabolic stability on peptides that are inherently susceptible to degradation by proteases. […] The stability of the compounds was then tested in plasma enriched with Brush Border Membrane Vesicles (BBMV). This system models the degradative conditions of the intestine.

T1 sequence (P22366 whole entry): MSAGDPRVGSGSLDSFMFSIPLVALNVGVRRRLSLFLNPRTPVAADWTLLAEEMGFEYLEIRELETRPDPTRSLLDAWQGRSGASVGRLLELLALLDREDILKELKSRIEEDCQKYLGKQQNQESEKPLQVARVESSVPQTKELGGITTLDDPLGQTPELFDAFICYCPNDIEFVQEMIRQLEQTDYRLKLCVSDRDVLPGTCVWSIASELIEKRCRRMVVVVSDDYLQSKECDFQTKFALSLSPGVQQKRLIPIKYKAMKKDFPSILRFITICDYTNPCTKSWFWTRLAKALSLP
T2 sequence (Q99836 151-296): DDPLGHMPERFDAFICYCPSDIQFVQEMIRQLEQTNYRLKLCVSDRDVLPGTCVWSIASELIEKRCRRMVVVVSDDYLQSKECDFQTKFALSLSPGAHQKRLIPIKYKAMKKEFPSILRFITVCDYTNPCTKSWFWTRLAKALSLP

6×6 bridge peptide: backbone cyclic peptide of Formula IV with m=6, n=6 (W[Gly(Nα-(CH2)6-NH2)]RDVL[Gly(Nα-(CH2)6-NH2)]GT; bridge 2-7 via CO)
MyD88 inhibitory activity (reduction in TNFα production) [1]: greatest MyD88 inhibitory activity | inhibition of TNFα production [2]: inhibited the human macrophage production of TNFα

PTDLVRG [MIPscr, reference compound]
IL-18-stimulated IFNγ level ([3]; 20 mM peptide (so in the source), IL-18 stimulation, supernatants after 24 h): had no effect | Percent p65 nuclear translocation, TNFα ([4]; TNFα (MyD88 independent)): 90% | Percent p65 nuclear translocation, No stimulation ([4]; no stimulation): 0% | inhibition of binding of the biotinylated peptide to the MyD88 TIR domain [5]: did not inhibit

RDVLPGT [MIP, Arg-Asp-Val-Leu-Pro-Gly-Thr, reference compound]
reduction of the level of IFN-γ ([3]; T cells with APC presenting MOG35-55 peptide plus IL-18): 30-35% | stability in plasma [6]: disappears rapidly
